Results taken from ChEMBL document CHEMBL1156596, “Overcoming undesirable CYP1A2 inhibition of pyridylnaphthalene-type aldosterone synthase inhibitors: influence of heteroaryl derivatization on potency and selectivity” (J Med Chem, 2008).

Assays:
[1] = molecular target: T1, Cytochrome P450 11B2, mitochondrial (Homo sapiens, UniProt P19099); assay: Inhibition of human CYP11B2 expressed in hamster V79 MZh cells at 500 nM; format: cell-based; details: V79MZh
T1 sequence (P19099 whole entry): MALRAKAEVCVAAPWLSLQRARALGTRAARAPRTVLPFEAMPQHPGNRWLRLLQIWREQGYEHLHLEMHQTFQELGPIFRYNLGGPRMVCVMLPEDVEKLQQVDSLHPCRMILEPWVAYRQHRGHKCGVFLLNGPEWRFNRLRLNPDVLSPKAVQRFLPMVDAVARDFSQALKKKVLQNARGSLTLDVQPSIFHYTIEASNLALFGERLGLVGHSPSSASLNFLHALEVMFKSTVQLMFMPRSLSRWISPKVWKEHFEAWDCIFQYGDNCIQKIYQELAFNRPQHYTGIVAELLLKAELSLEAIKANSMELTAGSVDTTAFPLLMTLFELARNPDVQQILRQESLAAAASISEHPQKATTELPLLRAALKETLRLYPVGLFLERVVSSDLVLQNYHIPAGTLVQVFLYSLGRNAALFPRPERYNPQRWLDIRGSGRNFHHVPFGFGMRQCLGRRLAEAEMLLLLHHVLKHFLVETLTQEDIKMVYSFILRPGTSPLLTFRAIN

CYP1A2 = molecular target: T2, CYP1A2 (Homo sapiens, UniProt P05177); assay: Inhibition of human recombinant CYP1A2 expressed in insect microsomes at 2 uM; format: ADME, Microsome
T2 sequence (P05177 whole entry): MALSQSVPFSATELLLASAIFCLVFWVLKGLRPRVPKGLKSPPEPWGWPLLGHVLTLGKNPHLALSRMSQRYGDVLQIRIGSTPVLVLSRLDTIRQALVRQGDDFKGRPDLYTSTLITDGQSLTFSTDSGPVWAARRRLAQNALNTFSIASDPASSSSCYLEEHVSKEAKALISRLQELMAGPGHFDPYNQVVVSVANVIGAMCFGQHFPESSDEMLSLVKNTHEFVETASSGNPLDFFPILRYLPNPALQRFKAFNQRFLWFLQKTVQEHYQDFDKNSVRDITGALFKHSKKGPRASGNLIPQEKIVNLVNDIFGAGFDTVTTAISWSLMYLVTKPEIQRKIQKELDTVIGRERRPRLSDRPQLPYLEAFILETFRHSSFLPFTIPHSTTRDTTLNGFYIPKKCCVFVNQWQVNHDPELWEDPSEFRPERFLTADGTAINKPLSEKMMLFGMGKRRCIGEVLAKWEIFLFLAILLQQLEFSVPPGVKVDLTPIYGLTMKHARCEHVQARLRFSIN

[2] = Terminal half life in Wistar rat at 5 mg/kg, po; format: ADME, organism-based; parameters: dose 5 mg/kg, route oral; details: in vivo
in vivo = details: Wistar, rat, po, 5 mg/kg
[3] = Cmax in Wistar rat at 5 mg/kg, po; format: ADME, organism-based; parameters: dose 5 mg/kg, route oral; details: in vivo
[4] = Tmax in Wistar rat at 5 mg/kg, po; format: ADME, organism-based; parameters: dose 5 mg/kg, route oral; details: in vivo
Homo sapiens = organism: Homo sapiens; assay: Selectivity ratio of IC50 for human CYP11B1 to IC50 for human CYP11B2
CYP11B1 = molecular target: T3, CYP11B1 (Homo sapiens, UniProt P15538); assay: in vitro; details: hamster V79 MZh cells expressing human CYP11B1
T3 sequence (P15538 whole entry): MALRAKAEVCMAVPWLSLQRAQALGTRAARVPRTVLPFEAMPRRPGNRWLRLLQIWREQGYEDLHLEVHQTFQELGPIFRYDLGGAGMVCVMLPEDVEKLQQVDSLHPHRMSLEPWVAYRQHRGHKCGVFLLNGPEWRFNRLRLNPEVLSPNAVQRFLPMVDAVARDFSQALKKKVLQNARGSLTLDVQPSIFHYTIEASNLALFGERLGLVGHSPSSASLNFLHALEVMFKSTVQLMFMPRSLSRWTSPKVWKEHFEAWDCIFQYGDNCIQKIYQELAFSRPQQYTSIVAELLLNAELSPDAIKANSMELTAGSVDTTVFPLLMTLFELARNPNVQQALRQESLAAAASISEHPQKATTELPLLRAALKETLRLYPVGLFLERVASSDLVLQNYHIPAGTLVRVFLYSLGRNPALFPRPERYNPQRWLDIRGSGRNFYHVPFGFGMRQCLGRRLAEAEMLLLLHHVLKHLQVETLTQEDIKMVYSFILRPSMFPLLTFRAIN

[5] = molecular target: T1, Cytochrome P450 11B2, mitochondrial
[6] = Plasma concentration in Wistar rat plasma at 5 mg/kg, po after 8 hrs; format: ADME, organism-based; parameters: dose 5 mg/kg, route oral
[7] = Plasma concentration in Wistar rat plasma at 5 mg/kg, po after 6 hrs; format: ADME, organism-based; parameters: dose 5 mg/kg, route oral
[8] = Plasma concentration in Wistar rat plasma at 5 mg/kg, po after 1 hr; format: ADME, organism-based; parameters: dose 5 mg/kg, route oral
[9] = Plasma concentration in Wistar rat plasma at 5 mg/kg, po after 4 hrs; format: ADME, organism-based; parameters: dose 5 mg/kg, route oral
[10] = Plasma concentration in Wistar rat plasma at 5 mg/kg, po after 2 hrs; format: ADME, organism-based; parameters: dose 5 mg/kg, route oral

## COc1ccc2cc(-c3cncc(C(=O)O)c3)ccc2c1
[1]
  inhibition at 0.5 µM: 7%

## N#Cc1ccc(C2CCCc3cncn32)cc1 (stereo not given) [FADROZOLE]
CYP1A2
  inhibition at 2 µM: 8%
[2]
  half-life: 132 min
In vivo; in vivo
  AUC(0-inf): 3580 ng·h/mL
[3]
  Cmax: 454 ng/mL
[4]
  Tmax: 1 h

## N#Cc1ccc2cc(-c3cccnc3)ccc2c1
CYP1A2
  inhibition at 2 µM: 97%
Homo sapiens
  Ratio IC50: 239
CYP11B1
  IC50: 691 nM
[5]
  IC50: 2.9 nM

## COc1ccc2cc(-c3cccnc3)ccc2c1
CYP1A2
  inhibition at 2 µM: 98%
[2]
  half-life: 324 min
[6]
  concentration at 8 h: 59.2 ng/mL
[7]
  concentration at 6 h: 133 ng/mL
[8]
  concentration at 1 h: 84.5 ng/mL
[9]
  concentration at 4 h: 124 ng/mL
[10]
  concentration at 2 h: 145 ng/mL
In vivo; plasma
  AUC(0-inf): 1540 ng·h/mL
[3]
  Cmax: 222 ng/mL
[4]
  Tmax: 1 h
